Laboratory results taken from US11384055B2 (BIOMARIN PHARMACEUTICAL INC., priority 2017, dated 2022).

Target: T1, Human GO (Homo sapiens, UniProt Q9UJM8)
T1 construct: purchased Novus Biologicals NBP1-72412
T1 sequence (Q9UJM8 1-370): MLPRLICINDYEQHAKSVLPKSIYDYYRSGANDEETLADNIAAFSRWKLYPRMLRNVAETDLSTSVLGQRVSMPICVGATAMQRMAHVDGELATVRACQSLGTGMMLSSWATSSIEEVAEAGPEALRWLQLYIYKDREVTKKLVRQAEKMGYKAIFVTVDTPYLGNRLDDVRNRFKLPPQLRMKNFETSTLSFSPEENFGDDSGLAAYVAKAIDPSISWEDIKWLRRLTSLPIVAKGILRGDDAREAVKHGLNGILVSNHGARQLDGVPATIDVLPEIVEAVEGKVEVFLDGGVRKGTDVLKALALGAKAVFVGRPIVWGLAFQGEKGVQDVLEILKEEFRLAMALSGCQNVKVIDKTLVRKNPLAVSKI
Assay: GO enzymatic assay (coupled fluorescence/HRP assay, glycolate substrate)
Format: biochemical
Details: not given
How it was run: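 Human GO incubated with glycolate substrate in 50 mM potassium phosphate, pH 7, with varying inhibitor concentrations. Activity read by coupled HRP fluorescence. IC50 taken from variable-slope sigmoidal dose-response fits of percent inhibition relative to DMSO control.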

SMILES	IC50
O=C(O)c1[nH]nnc1Oc1ccc(-c2ccc(Cl)c(Cl)c2)cc1 [Compound 165, 4-((3′,4′-dichloro-[1,1′-biphenyl]-4-yl)oxy)-1H-1,2,3-triazole-5-carboxylic acid 2,2,2-trifluoroacetate]	< 0.1 µM

Same assay, conditions: Table 1; read-out: Range (range of IC50 values calculated from the enzymatic assays)

SMILES	IC50
CC(C)N1CCc2ccc(-c3nn[nH]c3C(=O)O)cc2C1 [Compound 144, 4-(2-isopropyl-1,2,3,4-tetrahydroisoquinolin-7-yl)-1H-1,2,3-triazole-5-carboxylic acid 2,2,2-trifluoroacetate]	> 10 µM
O=C(O)c1[nH]nnc1-c1ccc(OC(F)(F)F)cn1 [Compound 145, 4-(5-(trifluoromethoxy)pyridin-2-yl)-1H-1,2,3-triazole-5-carboxylic acid 2,2,2-trifluoroacetate]	1 to 10 µM
O=C(O)c1[nH]nnc1C(=O)N1CCC(c2ccc(Cl)cc2)C1 (centres unmarked) [Compound 146, 4-(3-(4-chlorophenyl)pyrrolidine-1-carbonyl)-1H-1,2,3-triazole-5-carboxylic acid]	1 to 10 µM
O=C(O)c1[nH]nnc1C(=O)N1Cc2ccc(Cl)cc2C1 [Compound 147, 4-(5-chloroisoindoline-2-carbonyl)-1H-1,2,3-triazole-5-carboxylic acid]	1 to 10 µM
O=C(O)c1[nH]nnc1C(=O)N1CCc2cc(Cl)ccc21 [Compound 148, 4-(5-chloroindoline-1-carbonyl)-1H-1,2,3-triazole-5-carboxylic acid]	< 0.1 µM
O=C(O)c1[nH]nnc1C(=O)N1CCC(c2ccc(Cl)cc2Cl)C1 (centres unmarked) [Compound 149, 4-(3-(2,4-dichlorophenyl)pyrrolidine-1-carbonyl)-1H-1,2,3-triazole-5-carboxylic acid]	1 to 10 µM
O=C(O)c1[nH]nnc1C(=O)N1CCC(c2ccc(Cl)c(Cl)c2)C1 (centres unmarked) [Compound 150, 4-(3-(3,4-dichlorophenyl)pyrrolidine-1-carbonyl)-1H-1,2,3-triazole-5-carboxylic acid]	1 to 10 µM
O=C(O)c1[nH]nnc1SCc1ccc(Cl)c2ccccc12 [Compound 152, 4-(((4-chloronaphthalen-1-yl)methyl)thio)-1H-1,2,3-triazole-5-carboxylic acid 2,2,2-trifluoroacetate]	< 0.1 µM
O=C(O)c1[nH]nnc1Nc1cc(Cl)cc(Cl)c1 [Compound 153, 4-((3,5-dichlorophenyl)amino)-1H-1,2,3-triazole-5-carboxylic acid]	0.1 to 1 µM
O=C(O)c1[nH]nnc1Nc1cc(Cl)ccc1Cl [Compound 154, 4-((2,5-dichlorophenyl)amino)-1H-1,2,3-triazole-5-carboxylic acid 2,2,2-trifluoroacetate]	1 to 10 µM
O=C(O)c1[nH]nnc1Nc1ccc(-c2ccc(OC(F)(F)F)c(Cl)c2)cc1 [Compound 155, 4-((3′-chloro-4′-(trifluoromethoxy)-[1,1′-biphenyl]-4-yl)amino)-1H-1,2,3-triazole-5-carboxylic acid]	< 0.1 µM
O=C(O)c1[nH]nnc1Oc1ccc(-c2ccc(OC(F)(F)F)c(Cl)c2)cc1 [Compound 156, 4-((3′-chloro-4′-(trifluoromethoxy)-[1,1′-biphenyl]-4-yl)oxy)-1H-1,2,3-triazole-5-carboxylic acid]	< 0.1 µM
O=C(O)c1[nH]nnc1Oc1ccc(-c2cccc(C(=O)N3CCCCC3)c2)cc1 [Compound 157, 4-((3′-(piperidine-1-carbonyl)-[1,1′-biphenyl]-4-yl)oxy)-1H-1,2,3-triazole-5-carboxylic acid 2,2,2-trifluoroacetate]	< 0.1 µM
O=C(O)c1[nH]nnc1COc1ccc2cc(Cl)ccc2c1 [Compound 158, 4-(((6-chloronaphthalen-2-yl)oxy)methyl)-1H-1,2,3-triazole-5-carboxylic acid 2,2,2-trifluoroacetate]	< 0.1 µM
O=C(O)c1[nH]nnc1Oc1ccc(-c2cccc(CN3CCCCC3)c2)cc1 [Compound 160, 4-((3′-(piperidin-1-ylmethyl)-[1,1′-biphenyl]-4-yl)oxy)-1H-1,2,3-triazole-5-carboxylic acid 2,2,2-trifluoroacetate]	0.1 to 1 µM
O=C(O)c1[nH]nnc1Oc1ccc(-c2ccc(C(F)(F)F)cc2)cc1 [Compound 161, 4-((4′-(trifluoromethyl)-[1,1′-biphenyl]-4-yl)oxy)-1H-1,2,3-triazole-5-carboxylic acid]	< 0.1 µM
O=C(O)c1[nH]nnc1Oc1ccc(-c2cccc(OC3CCCC3)c2)cc1 [Compound 162, 4-((3′-(cyclopentyloxy)-[1,1′-biphenyl]-4-yl)oxy)-1H-1,2,3-triazole-5-carboxylic acid]	< 0.1 µM
O=C(O)c1[nH]nnc1Oc1ccc(-c2ccc(Cl)c(OC(F)(F)F)c2)cc1 [Compound 163, 4-((4′-chloro-3′-(trifluoromethoxy)-[1,1′-biphenyl]-4-yl)oxy)-1H-1,2,3-triazole-5-carboxylic acid]	< 0.1 µM
O=C(O)c1[nH]nnc1Sc1ccc(-c2cccc(N3CCCCC3)c2)cc1 [Compound 164, 4-((3′-(piperidin-1-yl)-[1,1′-biphenyl]-4-yl)thio)-1H-1,2,3-triazole-5-carboxylic acid 2,2,2-trifluoroacetate]	< 0.1 µM
O=C(O)c1[nH]nnc1C(F)(F)c1ccc(Cl)c(Cl)c1 [Compound 166, 4-((3,4-dichlorophenyl)difluoromethyl)-1H-1,2,3-triazole-5-carboxylic acid]	< 0.1 µM
O=C(O)c1[nH]nnc1OC1CCC(F)(F)CC1 [Compound 167, 4-((4,4-difluorocyclohexyl)oxy)-1H-1,2,3-triazole-5-carboxylic acid 2,2,2-trifluoroacetate]	< 0.1 µM
O=C(O)c1[nH]nnc1OC1CC2CCC1C2 (centres unmarked) [Compound 168, 4-(bicyclo[2.2.1]heptan-2-yloxy)-1H-1,2,3-triazole-5-carboxylic acid]	< 0.1 µM

Same assay, conditions: Table 2; read-out: Range (range of IC50 values calculated from the enzymatic assays)

SMILES	IC50
O=C(O)c1[nH]nnc1Sc1ccc(-c2ccc(N3CCCCC3)cc2)cc1 [Compound 169, 4-((4′-(piperidin-1-yl)-[1,1′-biphenyl]-4-yl)thio)-1H-1,2,3 triazole-5-carboxylic acid 2,2,2-trifluoroacetate]	< 0.1 µM
O=C(O)c1[nH]nnc1Sc1ccc(-c2cccc(OCC3CC3)c2)cc1 [Compound 170, 4-((3′-(cyclopropylmethoxy)-[1,1′-biphenyl]-4-yl)thio)-1H-1,2,3-triazole-5-carboxylic acid 2,2,2-trifluoroacetate]	< 0.1 µM
O=C(O)c1[nH]nnc1CSc1ccc2cc(Cl)ccc2c1 [Compound 171, 4-(((6-chloronaphthalen-2-yl)thio)methyl)-1H-1,2,3-triazole-5-carboxylic acid 2,2,2-trifluoroacetate]	< 0.1 µM
O=C(O)c1[nH]nnc1SC1CCc2cc(F)c(F)cc2C1 (centres unmarked) [Compound 172, 4-((6,7-difluoro-1,2,3,4-tetrahydronaphthalen-2-yl)thio)-1H-1,2,3-triazole-5-carboxylic acid]	< 0.1 µM
O=C(O)c1[nH]nnc1SC1Cc2cc(F)c(F)cc2C1 [Compound 173, 4-((5,6-difluoro-2,3-dihydro-1H-inden-2-yl)thio)-1H-1,2,3-triazole-5-carboxylic acid]	< 0.1 µM
O=C(O)c1[nH]nnc1SCc1ccc2cc(Cl)ccc2c1 [Compound 174, 4-(((6-chloronaphthalen-2-yl)methyl)thio)-1H-1,2,3-triazole-5-carboxylic acid 2,2,2-trifluoroacetate]	< 0.1 µM
CN1CCCc2cc(-c3ccc(Sc4nn[nH]c4C(=O)O)cc3)ccc21 [Compound 175, 4-((4-(1-methyl-1,2,3,4-tetrahydroquinolin-6-yl)phenyl)thio)-1H-1,2,3-triazole-5-carboxylic acid 2,2,2-trifluoroacetate]	< 0.1 µM
O=C(O)c1[nH]nnc1SCc1ccc(Cl)c(Cl)c1 [Compound 176, 4-((3,4-dichlorobenzyl)thio)-1H-1,2,3-triazole-5-carboxylic acid]	< 0.1 µM
O=C(O)c1[nH]nnc1SCc1ccc(-c2ccc(OC(F)(F)F)cc2)cc1 [Compound 177]	< 0.1 µM
O=C(O)c1[nH]nnc1CNc1ccc2cc(Cl)ccc2c1 [Compound 178, 4-(((6-chloronaphthalen-2-yl)amino)methyl)-1H-1,2,3-triazole-5-carboxylic acid 2,2,2-trifluoroacetate]	< 0.1 µM
CN(Cc1nn[nH]c1C(=O)O)c1ccc(Cl)c(Cl)c1 [Compound 179, 4-(((3,4-dichlorophenyl)(methyl)amino)methyl)-1H-1,2,3-triazole-5-carboxylic acid 2,2,2-trifluoroacetate]	< 0.1 µM
CN(Cc1nn[nH]c1C(=O)O)c1ccc2cc(Cl)ccc2c1 [Compound 180, 4-(((6-chloronaphthalen-2-yl)(methyl)amino)methyl)-1H-1,2,3-triazole-5-carboxylic acid 2,2,2-trifluoroacetate]	< 0.1 µM
O=C(O)c1[nH]nnc1Nc1ccc(-c2ccc(Cl)cc2)c(Cl)c1 [Compound 181, 4-((2,4′-dichloro-[1,1′-biphenyl]-4-yl)amino)-1H-1,2,3-triazole-5-carboxylic acid]	< 0.1 µM
O=C(O)c1[nH]nnc1NCc1ccc2cc(Cl)ccc2c1 [Compound 182, 4-(((6-chloronaphthalen-2-yl)methyl)amino)-1H-1,2,3-triazole-5-carboxylic acid]	0.1 to 1 µM
O=C(O)c1[nH]nnc1Nc1ccc(-c2ccc(C(F)(F)F)cc2)cc1 [Compound 183, 4-((4′-(trifluoromethyl)-[1,1′-biphenyl]-4-yl)amino)-1H-1,2,3-triazole-5-carboxylic acid]	< 0.1 µM
